What was measured:
Assay in all cases: relative viability (nuclei count vs DMSO), 5 days (fraction); higher = more cells survive
[1] = system: LU99A
Procedure, shortened: (§1)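 After 5 days of treatment, lung cancer cells in 1536-well plates were fixed and stained in a single step (final 0.05% Triton X-100, 1% formaldehyde, 1 ug/ml Hoechst) and their nuclei counted on 4× images. Treatment had been applied by pin tool the day after seeding as one drug alone or as a fixed anchor-drug dose with five library-drug doses (not always all listed) in √10 steps. Relative viability is the nuclei count of treated wells divided by that of vehicle wells, and values are medians of duplicate plates.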

[2] = system: NCI-H650
Procedure, shortened: as §1

[3] = system: LCLC-97TM1
Procedure, shortened: as §1

[4] = system: HCC-15
Procedure, shortened: as §1

[5] = system: NCI-H2009
Procedure, shortened: as §1

[6] = system: NCI-H2126
Procedure, shortened: as §1

[7] = system: NCI-H2228
Procedure, shortened: as §1

[8] = system: BEN
Procedure, shortened: as §1

[9] = system: NCI-H460
Procedure, shortened: as §1

[10] = system: NCI-H322M
Procedure, shortened: as §1

[11] = system: EPLC-272H
Procedure, shortened: as §1

[12] = system: NCI-H647
Procedure, shortened: as §1

[13] = system: HCC-78
Procedure, shortened: as §1

[14] = system: NCI-H23
Procedure, shortened: as §1

[15] = system: 201T
Procedure, shortened: as §1

[16] = system: NCI-H838
Procedure, shortened: as §1

[17] = system: PC-14
Procedure, shortened: as §1

[18] = system: NCI-H2085
Procedure, shortened: as §1

[19] = system: NCI-H1355
Procedure, shortened: as §1

[20] = system: NCI-H661
Procedure, shortened: as §1

[21] = system: NCI-H2405
Procedure, shortened: as §1

With `Cc1csc(=NC2CCCCC2)n1/N=C/c1ccc(O)c(O)c1O` [MIM1] + CC(C)C[C@H](NC(=O)[C@H](Cc1ccccc1)NC(=O)c1cnccn1)B(O)O [Bortezomib] (partner 0.002 µM) the relative viability ([1]; first compound 0.2 µM) was 1.08, the relative viability ([1]; first compound 0.6325 µM) was 1.08 and the relative viability ([1]; first compound 2 µM) was 1.1. For the same compound, the relative viability ([1]; first compound 6.325 µM) was 0.987, the relative viability ([1]; first compound 20 µM) was 0.341 and the relative viability ([2]; first compound 0.2 µM) was 0.769. It also gave a relative viability ([2]; first compound 0.6325 µM) of 0.73, a relative viability ([2]; first compound 2 µM) of 0.682 and a relative viability ([2]; first compound 6.325 µM) of 0.832. For the same compound, the relative viability ([2]; first compound 20 µM) was 0.296, the relative viability ([3]; first compound 0.2 µM) was 0.66 and the relative viability ([3]; first compound 0.6325 µM) was 0.811. The relative viability ([3]; first compound 2 µM) was 0.214, the relative viability ([3]; first compound 6.325 µM) was 0.346 and the relative viability ([3]; first compound 20 µM) was 0.0592. It also gave a relative viability ([4]; first compound 0.2 µM) of 1.05, a relative viability ([4]; first compound 0.6325 µM) of 0.911 and a relative viability ([4]; first compound 2 µM) of 1.06. It also gave a relative viability ([4]; first compound 6.325 µM) of 0.36, a relative viability ([4]; first compound 20 µM) of 0.267 and a relative viability ([5]; first compound 0.2 µM) of 1.01. It also gave a relative viability ([5]; first compound 0.6325 µM) of 0.956, a relative viability ([5]; first compound 2 µM) of 1.02 and a relative viability ([5]; first compound 6.325 µM) of 0.529. The relative viability ([5]; first compound 20 µM) was 0.106, the relative viability ([6]; first compound 0.2 µM) was 1.13 and the relative viability ([6]; first compound 0.6325 µM) was 1.1. For the same compound, the relative viability ([6]; first compound 2 µM) was 1.13, the relative viability ([6]; first compound 6.325 µM) was 1.03 and the relative viability ([6]; first compound 20 µM) was 1. For the same compound, the relative viability ([7]; first compound 0.2 µM) was 1.02, the relative viability ([7]; first compound 0.6325 µM) was 1.09 and the relative viability ([7]; first compound 2 µM) was 1.09. It also gave a relative viability ([7]; first compound 6.325 µM) of 0.414, a relative viability ([7]; first compound 20 µM) of 0.246 and a relative viability ([8]; first compound 0.2 µM) of 0.719. For the same compound, the relative viability ([8]; first compound 0.6325 µM) was 1.01, the relative viability ([8]; first compound 2 µM) was 0.929 and the relative viability ([8]; first compound 6.325 µM) was 0.735. It also gave a relative viability ([8]; first compound 20 µM) of 0.183, a relative viability ([9]; first compound 0.2 µM) of 1.12 and a relative viability ([9]; first compound 0.6325 µM) of 1.26. It also gave a relative viability ([9]; first compound 2 µM) of 0.604, a relative viability ([9]; first compound 6.325 µM) of 0.467 and a relative viability ([9]; first compound 20 µM) of 0.0328. It also gave a relative viability ([10]; first compound 0.2 µM) of 1.21, a relative viability ([10]; first compound 0.6325 µM) of 1.2 and a relative viability ([10]; first compound 2 µM) of 1.35. For the same compound, the relative viability ([10]; first compound 6.325 µM) was 1.17, the relative viability ([10]; first compound 20 µM) was 1.08 and the relative viability ([11]; first compound 0.2 µM) was 0.805. For the same compound, the relative viability ([11]; first compound 0.6325 µM) was 0.796, the relative viability ([11]; first compound 2 µM) was 0.588 and the relative viability ([11]; first compound 6.325 µM) was 0.732. It also gave a relative viability ([11]; first compound 20 µM) of 0.483, a relative viability ([12]; first compound 0.2 µM) of 1.05 and a relative viability ([12]; first compound 0.6325 µM) of 0.878. For the same compound, the relative viability ([12]; first compound 2 µM) was 0.98, the relative viability ([12]; first compound 6.325 µM) was 0.769 and the relative viability ([12]; first compound 20 µM) was 0.237. It also gave a relative viability ([13]; first compound 0.2 µM) of 0.491, a relative viability ([13]; first compound 0.6325 µM) of 0.555 and a relative viability ([13]; first compound 2 µM) of 0.559. For the same compound, the relative viability ([13]; first compound 6.325 µM) was 0.418, the relative viability ([13]; first compound 20 µM) was 0.4 and the relative viability ([14]; first compound 0.2 µM) was 1.08. For the same compound, the relative viability ([14]; first compound 2 µM) was 0.702, the relative viability ([14]; first compound 6.325 µM) was 0.851 and the relative viability ([14]; first compound 20 µM) was 0.167. For the same compound, the relative viability ([15]; first compound 0.2 µM) was 1.09, the relative viability ([15]; first compound 0.6325 µM) was 1.08 and the relative viability ([15]; first compound 2 µM) was 1.08. For the same compound, the relative viability ([15]; first compound 6.325 µM) was 0.779, the relative viability ([15]; first compound 20 µM) was 0.82 and the relative viability ([16]; first compound 0.2 µM) was 0.869. The relative viability ([16]; first compound 0.6325 µM) was 0.808, the relative viability ([16]; first compound 2 µM) was 0.78 and the relative viability ([16]; first compound 6.325 µM) was 0.53. The relative viability ([16]; first compound 20 µM) was 0.136, the relative viability ([17]; first compound 0.2 µM) was 0.751 and the relative viability ([17]; first compound 0.6325 µM) was 0.882. It also gave a relative viability ([17]; first compound 2 µM) of 0.779, a relative viability ([17]; first compound 6.325 µM) of 0.692 and a relative viability ([17]; first compound 20 µM) of 0.192. For the same compound, the relative viability ([18]; first compound 0.2 µM) was 1.08, the relative viability ([18]; first compound 0.6325 µM) was 0.994 and the relative viability ([18]; first compound 2 µM) was 0.986. For the same compound, the relative viability ([18]; first compound 6.325 µM) was 0.952, the relative viability ([18]; first compound 20 µM) was 0.989 and the relative viability ([19]; first compound 0.2 µM) was 1.26. The relative viability ([19]; first compound 0.6325 µM) was 0.978, the relative viability ([19]; first compound 2 µM) was 1.22 and the relative viability ([19]; first compound 6.325 µM) was 0.871. The relative viability ([19]; first compound 20 µM) was 0.916, the relative viability ([20]; first compound 0.2 µM) was 0.843 and the relative viability ([20]; first compound 0.6325 µM) was 0.861. It also gave a relative viability ([20]; first compound 2 µM) of 0.648, a relative viability ([20]; first compound 6.325 µM) of 0.453 and a relative viability ([20]; first compound 20 µM) of 0.221. It also gave a relative viability ([21]; first compound 0.2 µM) of 0.959, a relative viability ([21]; first compound 0.6325 µM) of 1.01 and a relative viability ([21]; first compound 2 µM) of 0.961. It also gave a relative viability ([21]; first compound 6.325 µM) of 0.788 and a relative viability ([21]; first compound 20 µM) of 0.358.

From the supplement of paper PMC10307832
